From patent publication US12570639B2, “Tetrahydroquinoline derivative and medicinal use thereof” (Toray Industries, Inc., priority 2020, dated 2026) come the findings set out here.

For the first experiment, the system named is Human fibrosarcoma cells (HT-1080 cells). The experiment is described as follows: In vitro inhibitory action against ferroptosis (Erastin-induced cell death, Cell Counting Kit-8). Format: cell-based. Conditions: evaluation concentration 30 μmol/L, Erastin 3 μmol/L, 24 hours. As for the experimental part:
The inhibitory action against ferroptosis of the tetrahydroquinoline derivative (I) or a pharmaceutically acceptable salt thereof was evaluated with Human fibrosarcoma cells (HT-1080 cells), by using, as an index, the inhibitory action against the cell death induced by treatment with a ferroptosis inducer, Erastin.
HT-1080 cells (ATCC) were cultured in a mixture (hereinafter referred to as vehicle) composed of DMEM/F12 (Thermo Fisher Scientific, Inc.), a final concentration of 10% fetal bovine serum (Thermo Fisher Scientific, Inc.), and a final concentration of 1% penicillin-streptomycin solution (Nacalai Tesque, Inc.). Cells were seeded into 96-well plates (Corning Inc.) at 5×10^4 cells/well and cultured overnight.
A test compound was dissolved in DMSO, and the resulting solution was diluted in the vehicle to a final concentration of 1% DMSO and then used. […] Thirty minutes after the addition of the test compound, Erastin (Cayman Chemical Co.) diluted in the vehicle at a final concentration of 3 μmol/L was added to wells. The wells added with the test compound and Erastin were grouped as “test compound,” and the wells added with no test compound and no Erastin were grouped as “background,” and the wells added with no test compound but with Erastin were grouped as “control.” Twenty-four hours after the addition of Erastin, 5 μL of Cell Counting Kit-8 (Dojindo Laboratories) was added to each well and incubated for 4 hours, and the absorbance at 450 nm was then measured for each well (N=2). […] Ferroptosis inhibition rate (%)=[1−{(Average absorbance value at 450 nm measured when a test compound is added)−(Average absorbance value at 450 nm measured in the background)}/{(Average absorbance value at 450 nm measured in the control)−(Average absorbance value at 450 nm measured in the background)}]×100 Equation 1
Take “7-fluoro-(1H-pyrazol-4-yl)-1,2,3,4-tetrahydroquinoline [Example 140]”: the “Ferroptosis inhibition rate (%)” value is 72.81%.

Take `COC(=O)[C@@H]1C[C@H](c2ccccc2)Nc2ccccc21` (relative stereo) [Example 88, methyl (2R*, 4R*)-2-phenyl-1,2,3,4-tetrahydroquinolin-4-carboxylate]: the “Ferroptosis inhibition rate (%)” value stood at 97.70%.

With `OC[C@@H]1C[C@H](c2ccccc2)Nc2ccccc21` (relative stereo) [Example 89, ((2R*,4R*)-2-phenyl-1,2,3,4-tetrahydroquinolin-4-yl)methanol], the “Ferroptosis inhibition rate (%)” value is given as 99.12%.

As to `C[C@@H]1C[C@H](c2ccccc2)Nc2ccccc21` (relative stereo) [Example 90, (2R*,4R*)-4-methyl-2-phenyl-1,2,3,4-tetrahydroquinoline], the “Ferroptosis inhibition rate (%)” value is listed as 102.4%.

Regarding `c1ccc2c(c1)CCC(c1cn[nH]c1)N2` (centres unmarked) [Example 12, 2-(1H-pyrazol-4-yl)-1,2,3,4-tetrahydroquinoline], the “Ferroptosis inhibition rate (%)” value was 110.9%.

As to `c1ccc2c(c1)CCC(c1cn[nH]c1)N2` (centres unmarked) [Example 13, 2-(1H-pyrazol-4-yl)-1,2,3,4-tetrahydroquinoline], the “Ferroptosis inhibition rate (%)” value is 119.6%.

With `COc1ccc(C2CCc3ccccc3N2)cn1` (centres unmarked) [Example 15, 2-(6-methoxypyridin-3-yl)-1,2,3,4-tetrahydroquinoline], the “Ferroptosis inhibition rate (%)” value is on record as 89.22%.

With `CC(C)(O)c1ccc(C2CCc3ccccc3N2)cc1` (centres unmarked) [Example 18, 2-(4-(1,2,3,4-tetrahydroquinolin-2-yl)phenyl)propan-2-ol], the “Ferroptosis inhibition rate (%)” value amounted to 66.52%.

Take `NS(=O)(=O)c1cccc(C2CCc3ccccc3N2)c1` (centres unmarked) [Example 19, 3-(1,2,3,4-tetrahydroquinolin-2-yl)benzenesulfonamide]: the “Ferroptosis inhibition rate (%)” value was 100.5%.

Regarding `NS(=O)(=O)c1ccccc1C1CCc2ccccc2N1` (centres unmarked) [Example 20, 2-(1,2,3,4-tetrahydroquinolin-2-yl)benzenesulfonamide], the “Ferroptosis inhibition rate (%)” value was determined as 95.88%.

On to `c1ccc2c(c1)CCC(c1cc[nH]n1)N2` (centres unmarked) [Example 22, 2-(1H-pyrazol-3-yl)-1,2,3,4-tetrahydroquinoline], for which the “Ferroptosis inhibition rate (%)” value was determined as 103.2%.

For the compound `O=C1CCc2cc(C3CCc4ccccc4N3)ccc2N1` (centres unmarked) [Example 23, 1,2,3,3′,4,4′-hexahydro-[2,6′-biquinolin]-2′(1′H)-one], the “Ferroptosis inhibition rate (%)” value is on record as 68.45%.

`CN1C(=O)CCc2cc(C3CCc4ccccc4N3)ccc21` (centres unmarked) [Example 24, 1′-methyl-1,2,3,3′,4,4′-hexahydro-[2,6′-biquinolin]-2′(1′H)-one]: the “Ferroptosis inhibition rate (%)” value was determined as 59.67%.

For `O=C1NCc2cc(C3CCc4ccccc4N3)ccc21` (centres unmarked) [Example 25, 5-(1,2,3,4-tetrahydroquinolin-2-yl)isoindolin-1-one], the “Ferroptosis inhibition rate (%)” value is 105.3%.

Take `CCN(CC)C(=O)c1ccc(C2CCc3ccccc3N2)cc1` (centres unmarked) [Example 39, N,N-diethyl-4-(1,2,3,4-tetrahydroquinolin-2-yl)benzamide]: the “Ferroptosis inhibition rate (%)” value is listed as 101.5%.

As for `CCNC(=O)c1ccc(C2CCc3ccccc3N2)cc1` (centres unmarked) [Example 40, N-ethyl-4-(1,2,3,4-tetrahydroquinolin-2-yl)benzamide], the “Ferroptosis inhibition rate (%)” value came to 111.1%.

As to `O=C(c1ccc(C2CCc3ccccc3N2)cc1)N1CCCCC1` (centres unmarked) [Example 41, piperidin-1-yl(4-(1,2,3,4-tetrahydroquinolin-2-yl)phen-yl)methanone], the “Ferroptosis inhibition rate (%)” value was found to be 102.2%.

In the case of `O=C(c1ccc(C2CCc3ccccc3N2)cc1)N1CCOCC1` (centres unmarked) [Example 42, morpholino(4-(1,2,3,4-tetrahydroquinolin-2-yl)phenyl)methanone], the “Ferroptosis inhibition rate (%)” value was found to be 98.89%.

For the compound `CN1CCN(C(=O)c2ccc(C3CCc4ccccc4N3)cc2)CC1` (centres unmarked) [Example 43, (4-methylpiperazin-1-yl)(4-(1,2,3,4-tetrahydroquinolin-2-yl)phenyl)methanone], the “Ferroptosis inhibition rate (%)” value stood at 107.1%.

Regarding `N#Cc1cccc(C2CCc3ccccc3N2)c1` (centres unmarked) [Example 45, 3-(1,2,3,4-tetrahydroquinolin-2-yl)benzonitrile], the “Ferroptosis inhibition rate (%)” value is listed as 109.1%.

With `NC(=O)c1cccc(C2CCc3ccccc3N2)c1` (centres unmarked) [Example 46, 3-(1,2,3,4-tetrahydroquinolin-2-yl)benzamide], the “Ferroptosis inhibition rate (%)” value is recorded as 109.0%.

For `OCc1ccccc1C1CCc2ccccc2N1` (centres unmarked) [Example 47, (2-(1,2,3,4-tetrahydroquinolin-2-yl)phenyl)methanol], the “Ferroptosis inhibition rate (%)” value stood at 85.21%.

Turning to `OCc1cccc(C2CCc3ccccc3N2)c1` (centres unmarked) [Example 48, (3-(1,2,3,4-tetrahydroquinolin-2-yl)phenyl)methanol], the “Ferroptosis inhibition rate (%)” value was determined as 81.80%.

On to `OCc1ccc(C2CCc3ccccc3N2)cc1` (centres unmarked) [Example 49, (4-(1,2,3,4-tetrahydroquinolin-2-yl)phenyl)methanol], for which the “Ferroptosis inhibition rate (%)” value is 99.20%.

In the case of `c1ccc2c(c1)CCC(c1cnsc1)N2` (centres unmarked) [Example 50, 4-(1,2,3,4-tetrahydroquinolin-2-yl)isothiazole], the “Ferroptosis inhibition rate (%)” value worked out at 103.2%.

In the case of `CC(C)c1ccc2c(c1)CCC(c1ccccc1)N2` (centres unmarked) [Example 54, 6-isopropyl-2-phenyl-1,2,3,4-tetrahydroquinoline], the “Ferroptosis inhibition rate (%)” value worked out at 109.9%.

As to `Oc1ccc2c(c1)CCC(c1ccccc1)N2` (centres unmarked) [Example 55, 2-phenyl-1,2,3,4-tetrahydroquinolin-6-ol], the “Ferroptosis inhibition rate (%)” value was found to be 93.72%.

Staying with this experiment, now noted: evaluation concentration 50 μmol/L, Erastin 3 μmol/L, 24 hours.
As to `COc1ccc(C2CCc3ccccc3N2)cc1` (centres unmarked) [Example 4, 2-(4-methoxyphenyl)-1,2,3,4-tetrahydroquinoline], the “Ferroptosis inhibition rate (%)” value turned out to be 99.10%.

For the compound `COc1cccc(C2CCc3ccccc3N2)c1` (centres unmarked) [Example 5, 2-(3-methoxyphenyl)-1,2,3,4-tetrahydroquinoline], the “Ferroptosis inhibition rate (%)” value amounted to 99.69%.

In the case of `COc1ccccc1C1CCc2ccccc2N1` (centres unmarked) [Example 6, 2-(2-methoxyphenyl)-1,2,3,4-tetrahydroquinoline], the “Ferroptosis inhibition rate (%)” value stood at 90.22%.

Regarding `COc1ccc2c(c1)CCC(c1ccc3c(c1)OCO3)N2` (centres unmarked) [Example 7, 2-(benzo[d][1,3]dioxol-5-yl)-6-methoxy-1,2,3,4-tetrahydro-quinoline], the “Ferroptosis inhibition rate (%)” value is 93.95%.

As to `COc1ccc(C2CCc3ccc(OC)cc3N2)cc1` (centres unmarked) [Example 8, 7-methoxy-2-(4-methoxyphenyl)-1,2,3,4-tetrahydroquinoline], the “Ferroptosis inhibition rate (%)” value is given as 100.6%.

On to `c1ccc2c(c1)CCC(c1ccc3c(c1)OCO3)N2` (centres unmarked) [Example 9, 2-(benzo[d][1,3]dioxol-5-yl)-1,2,3,4-tetrahydroquinoline], for which the “Ferroptosis inhibition rate (%)” value is recorded as 88.84%.

Turning to `FC(F)(F)c1ccccc1C1CCc2ccccc2N1` (centres unmarked) [Example 10, 2-(2-(trifluoromethyl)phenyl)-1,2,3,4-tetrahydroquinoline], the “Ferroptosis inhibition rate (%)” value worked out at 103.9%.

On to `Cn1cc(C2CCc3ccccc3N2)cn1` (centres unmarked) [Example 14, 2-(1-methyl-1H-pyrazol-4-yl)-1,2,3,4-tetrahydroquinoline], for which the “Ferroptosis inhibition rate (%)” value came to 97.39%.

`COC(=O)c1ccc(C2CCc3ccccc3N2)cc1` (centres unmarked) [Example 17, methyl 4-(1,2,3,4-tetrahydroquinolin-2-yl)benzoate]: the “Ferroptosis inhibition rate (%)” value is recorded as 98.12%.

Consider `Fc1cccc(C2CCc3ccccc3N2)c1` (centres unmarked) [Example 27, 2-(3-fluorophenyl)-1,2,3,4-tetrahydroquinoline], for which the “Ferroptosis inhibition rate (%)” value was 113.1%.

For `Fc1ccccc1C1CCc2ccccc2N1` (centres unmarked) [Example 28, 2-(2-fluorophenyl)-1,2,3,4-tetrahydroquinoline], the “Ferroptosis inhibition rate (%)” value came to 109.4%.

Take `FC(F)(F)c1cccc(C2CCc3ccccc3N2)c1` (centres unmarked) [Example 30, 2-(3-(trifluoromethyl)phenyl)-1,2,3,4-tetrahydroquinoline]: the “Ferroptosis inhibition rate (%)” value is recorded as 83.09%.

`CNC(=O)c1cccc(C2CCc3ccccc3N2)c1` (centres unmarked) [Example 44, N-methyl-3-(1,2,3,4-tetrahydroquinolin-2-yl)benzamide]: the “Ferroptosis inhibition rate (%)” value worked out at 114.3%.

In the case of `OCc1cccc2c1CCC(c1ccccc1)N2` (centres unmarked) [Example 51, (2-phenyl-1,2,3,4-tetrahydroquinolin-5-yl)methanol], the “Ferroptosis inhibition rate (%)” value was 84.55%.

For the compound `OCc1ccc2c(c1)NC(c1ccccc1)CC2` (centres unmarked) [Example 52, (2-phenyl-1,2,3,4-tetrahydroquinolin-7-yl)methanol], the “Ferroptosis inhibition rate (%)” value is recorded as 74.96%.

Take `c1ccc(C2CCc3ccccc3N2)nc1` (centres unmarked) [Example 53, 2-(pyridin-2-yl)-1,2,3,4-tetrahydroquinoline]: the “Ferroptosis inhibition rate (%)” value was found to be 111.3%.

For the compound `COC(=O)c1ccc2c(c1)CCC(c1ccccc1)N2` (centres unmarked) [Example 56, methyl 2-phenyl-1,2,3,4-tetrahydroquinoline-6-carboxylate], the “Ferroptosis inhibition rate (%)” value is reported as 100.1%.
